Laboratory results taken from ChEMBL document CHEMBL1158164, “2-Deoxy-2,3-didehydro-N-acetylneuraminic acid analogs structurally modified by thiocarbamoylalkyl groups at the C-4 position: Synthesis and biological evaluation as inhibitors of human parainfluenza virus type 1” (Bioorg Med Chem, 2008).

Assay: Inhibition of hPIV1 sialidase
Design: species or system Human respirovirus 1

SMILES	IC50 [µM]
CC(=O)N[C@H]1[C@H]([C@H](O)[C@H](O)CO)OC(C(=O)O)=C[C@@H]1OCCC(N)=S	68
CC(=O)N[C@H]1[C@H]([C@H](O)[C@H](O)CO)OC(C(=O)O)=C[C@@H]1OCCCC(N)=S	102
CC(=O)N[C@H]1[C@H]([C@H](O)[C@H](O)CO)OC(C(=O)O)=C[C@@H]1O [NEU5AC2EN]	300
CC(=O)N[C@H]1[C@H]([C@H](O)[C@H](O)CO)OC(C(=O)O)=C[C@@H]1OCC(N)=S	9
